Like-named read-outs stand apart in the source and are kept apart here. Blank lines part the entries; values can stand above or below the compound they belong to.
How the values were obtained:
[1] = Single dose inhalation study: LNP component lipid levels in blood, lung, liver, spleen; assay type: in vivo, cynomolgus monkey; settings: for lipid signal in lung remaining: 72 hr; for lipid signal in lung remaining, % of peak: 7 days; for time of peak lipid level in lung tissue: after inhaled Composition A-DNAI1-HA
Description: Group 1 animals were terminated at 24-hours post end of exposure.
Levels of the LNP component lipids 4A3-SC7, 14:0 EPC, and DMG-PEG were measured in blood, lung, liver, and spleen samples following administration of Composition-DNAI1-HA. Blood samples were collected at pre-treatment, 0.5 hr, 1 hr, 6 hr, 24 hr, 48 hr, and 7 days postadministration and processed to separate the plasma and blood cell fractions. Spleen and liver samples were collected at 6 hr, 24 hr, 72 hr, and 7 days post-exposure. Lung tissue was sampled in three locations from the right lung of each animal: Caudal lobe, cranial lobe, and middle lobe at each necropsy time point.

[2] = test system: CFTR function in human Bronchial Epithelials (hBE); assay: CFTR function (chloride conductance, MTECC24) in hBE after nebulized CFTR mRNA LNPs; assay type: cell-based
Description: CFTR mRNA was incorporated into various LNP compositions: DODAP-containing Composition B and various non-DODAP lipid nanoparticles (400 μL for Composition A and Composition H) stored in 1× phosphate buffered saline (PBS). The compositions were nebulized using a VitroCell® system with a mesh nebulizer to deliver aerosolized LNPs to primary human Bronchial Epithelials (hBE). CFTR function was measured. The composition of the nanoparticles used in the study is shown below in Table 13.
Experiments were conducted to evaluate the impact of cholesterol on the stability and efficacy of lipid nanoparticle (LNP) compositions. Composition B lipid nanoparticles containing higher molar percentage of cholesterol were created and subjected to test its CFTR function. Chloride conductance was measured with multi transepithelial current clamp system (MTECC24). […] Further, lipid nanoparticles containing 50% molar percentage of cholesterol were created, measured its CFTR function and resulted that increased molar percentage of cholesterol in lipid nanoparticles enhanced CFTR function (FIG. 41). […]
Cystic Fibrosis treatment drugs (Trifkafta or Orkambi) were treated at the time of nebulization. At 24 h post-treatment, chloride conductance was measured with multi transepithelial current clamp system (MTECC24). […]

hBE cells = assay: Transepithelial electrical resistance (TEER) in hBE; assay type: cell-based, human; settings: W1282X/W1282X and R553X/W1282X hBE; pre-treatment before LNP nebulization
Description: As used herein, the phrase “transepithelial electrical resistance (TEER)” is a measurement method of electrical resistance across a cellular monolayer to confirm the integrity and permeability of a monolayer. Measurement of TEER is described, for example, in Srinivasan et al. J. Lab. Automation 20:107-126 (2015).
Cystic Fibrosis treatment drugs (Trifkafta or Orkambi) were treated at the time of nebulization. At 24 h post-treatment, chloride conductance was measured with multi transepithelial current clamp system (MTECC24). In both cell lines, nebulization of lipid nanoparticles containing CFTR mRNA rescued CFTR function.
To determine whether aerosolized lipid nanoparticles affect cell toxicity, six ΔF508/ΔF508 homozygous genotypes hBE cells were dosed lipid nanoparticles and measured electrical resistance across a cellular monolayer and released lactic acid dehydrogenase (LDH).
To determine whether mucus production affects transfection efficiency of lipid nanoparticles, W1282X/W1282X hBEs and R553X/W1282X hBEs cells were pre-treated Dithiothreitol (DTT) before lipid nanoparticles were nebulized (experimental scheme shown in FIG. 49). […] Cell toxicities were measured by transepithelial electrical resistance (TEER).

SMILES: CCCCCCCCCCCCCC(=O)OCC(COP(=O)(OCC)OCC[N+](C)(C)C)OC(=O)CCCCCCCCCCCCC (stereo not shown) [14:0 EPC, 1,2-dimyristoyl-sn-glycero-3-ethylphosphocholine]
lipid signal in lung remaining ([1]; high dose): 2.5%
lipid signal in lung remaining ([1]; low dose): 13.2%
lipid signal in lung remaining, % of peak ([1]; high dose): 0.8%
lipid signal in lung remaining, % of peak ([1]; low dose): 0.7%
time of peak lipid level in lung tissue [1]: 6 h
lipid level in liver ([1]; all samples except one high dose sample at 6 hr (below assay LOQ)): not detected
concentration at 6 hr ([1]; both sexes, cynomolgus monkey, lung, inhaled, 0.34 mg/kg, 6 hr, high dose (group 3), read-out: lipid level in lung): 13900 to 66700 ng/g
concentration at 1 hr ([1]; both sexes, cynomolgus monkey, plasma, inhaled, 0.34 mg/kg, high dose (group 3), 1 hr, read-out: lipid level in plasma): 1.03 ng/mL
concentration at 6 hr ([1]; both sexes, cynomolgus monkey, plasma, inhaled, 0.34 mg/kg, high dose (group 3), 6 hr, read-out: lipid level in plasma): 1.97 ng/mL
concentration at 6 hr ([1]; both sexes, cynomolgus monkey, spleen, inhaled, 0.34 mg/kg, high dose sample at 6 hr, all others not detected, read-out: lipid level in spleen): 9.56 ng/g
lipid level in plasma ([1]; high dose (group 3), 1 hr): 0.99 ng/mL

lipid signal in lung remaining ([1]; high dose): 0.6%
lipid signal in lung remaining ([1]; low dose): 13%
lipid level in lung ([1]; 7 days post-administration, all samples except one caudal lobe sample in high dose group): below the limit of quantitation
time of peak lipid level in lung tissue [1]: 6 h
concentration at 6 hr ([1]; both sexes, cynomolgus monkey, lung, inhaled, 0.34 mg/kg, 6 hr post-exposure, high dose group, read-out: lipid level in lung): 9550 to 67800 ng/mL
SMILES: CCCCCCCSCC(C)C(=O)OCCOC(=O)CCN(CCCN(C)CCCN(CCC(=O)OCCOC(=O)C(C)CSCCCCCCC)CCC(=O)OCCOC(=O)C(C)CSCCCCCCC)CCC(=O)OCCOC(=O)C(C)CSCCCCCCC (stereo not shown) [Composition 4A3-SC7]

SMILES: O[C@H](CS)[C@H](O)CS (racemic) [DTT, Dithiothreitol]
chloride flux after nebulization of lipid nanoparticles ([2]; W1282X/W1282X and R553X/W1282X hBE, pre-treatment raised from 3 mM to 10 mM): correlated with higher chloride flux
cell toxicity by TEER (hBE cells): cell integrity was not affected

SMILES: CC(C)(C)c1cc(C(C)(C)C)c(NC(=O)c2c[nH]c3ccccc3c2=O)cc1O [Ivacaftor]
rescue of CFTR function on addition of CFTR activator ([2]; R553X/W1282X and W1282X/W1282X hBE, after delivery of lipid nanoparticles): further increased rescue of CFTR function
